Values quoted from earlier work, collected in patent US20220125818A1, “COMPOSITIONS AND METHODS FOR TREATMENT OF A CORONAVIRUS DISEASE (COVID-19) INFECTION” (priority 2020, published 2022).

Biological target: T1, COX-1 (Homo sapiens, UniProt P23219)
T1 construct: endogenous in cells; host or cells: platelets (in vivo)
Conditions: average platelet lifespan

T1 sequence (P23219 24-599): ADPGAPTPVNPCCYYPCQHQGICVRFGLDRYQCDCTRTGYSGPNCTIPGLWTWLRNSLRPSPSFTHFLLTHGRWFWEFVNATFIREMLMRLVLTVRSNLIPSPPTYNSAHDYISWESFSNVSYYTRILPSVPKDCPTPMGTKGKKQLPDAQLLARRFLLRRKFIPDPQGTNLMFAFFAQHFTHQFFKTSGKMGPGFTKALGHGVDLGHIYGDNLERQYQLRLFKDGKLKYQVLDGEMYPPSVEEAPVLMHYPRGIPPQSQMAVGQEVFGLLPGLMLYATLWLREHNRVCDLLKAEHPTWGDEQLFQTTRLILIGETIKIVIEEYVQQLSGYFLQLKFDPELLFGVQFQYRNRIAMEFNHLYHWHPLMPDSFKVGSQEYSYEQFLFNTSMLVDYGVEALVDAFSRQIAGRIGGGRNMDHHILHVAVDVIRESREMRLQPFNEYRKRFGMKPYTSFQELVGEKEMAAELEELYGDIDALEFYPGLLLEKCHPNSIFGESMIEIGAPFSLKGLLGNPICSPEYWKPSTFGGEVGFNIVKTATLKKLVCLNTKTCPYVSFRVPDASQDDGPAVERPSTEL

## CC(=O)Oc1ccccc1C(=O)O [Aspirin®, Acetylsalicylic acid]
  duration of inhibition of platelet aggregation: 7 to 10 days
